For the experiment, the target named is T1, crosslinked smooth muscle actomyosin (chicken gizzard smooth muscle myosin subfragment-1 crosslinked to cardiac or skeletal actin) (Gallus gallus, UniProt P10587).
T1 construct: chicken gizzard smooth muscle myosin subfragment-1; from tissue; host or cells: chicken gizzard
In words: Lead optimization pyruvate kinase/horseradish peroxidase/pyruvate oxidase-coupled ATPase assay (compound dose response). Format: biochemical. As to conditions: read-out: IC50 Arithmetic Mean. The procedure, abridged:
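The ATPase used chicken gizzard smooth muscle myosin S1 chemically crosslinked to cardiac or skeletal actin, titrated to a set hydrolysis rate. It was coupled via pyruvate kinase/pyruvate oxidase/HRP in 12 mM K-PIPES pH 7.00 (22 °C) with 0.15 mM ATP, 2 mM MgCl2, 100 mM KCl and 0.1 mM Amplex Red. Fluorescence was read at ex 480/em 615 nm, and IC50 came from a 4-parameter fit.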

In patent US8071625B2, “Certain chemical entities, compositions, and methods” (Cytokinetics, Inc., priority 2006, dated 2011) one finds IC50 data, which are given here for 32 molecules.

The IC50 is the midpoint of a concentration-inhibition curve.

In the case of `CCc1ccc(NC(=O)OCC2(C(=O)NCc3cccc4ccccc34)CCN(C(=O)CN)CC2)cc1` [({1-(2-aminoacetyl)-4-[N-(naphthylmethyl)carbamoyl](4-piperidyl)}methoxy)-N-(4-ethylphenyl)carboxamide], the IC50 was found to be 0.439 µM.
With `CCc1ccc(NC(=O)OCC2(C(=O)NCc3ccccc3Cl)CCN(C(=O)NCCN)CC2)cc1` [N-(2-aminoethyl)(4-{N-[(2-chlorophenyl)methyl]carbamoyl}-4-{[N-(4-ethylphenyl)carbamoyloxy]methyl}piperidyl)carboxamide], the concentration for half-maximal inhibition (IC50) was 0.159 µM.
The figure for `CCc1ccc(NC(=O)OCCN(CCN)C(=O)NCc2ccccc2Cl)cc1` [N-(2-aminoethyl){[(2-chlorophenyl)methyl]amino}-N-{2-[N-(4-ethylphenyl)carbamoyloxy]ethyl}carboxamide] is 2.83 µM; for `CCc1ccc(NC(=O)OCCN(CCCN)C(=O)NCc2ccccc2Cl)cc1` [N-(3-aminopropyl){[(2-chlorophenyl)methyl]amino}-N-{2-[N-(4-ethylphenyl)carbamoyloxy]ethyl}carboxamide] it is 2.54 µM.
The figure for `CCc1ccc(NC(=O)OCCN(CCCCCN)C(=O)NCc2ccccc2Cl)cc1` [N-(5-aminopentyl){[(2-chlorophenyl)methyl]amino}-N-{2-[N-(4-ethylphenyl)carbamoyloxy]ethyl}carboxamide] is 0.487 µM.
The figure for `CCc1ccc(NC(=O)OC[C@@H]2C[C@@H](NC(=O)CN)CN2C(=O)NCc2ccccc2Cl)cc1` [N-((5S,3R)-1-{N-[(2-chlorophenyl)methyl]carbamoyl}-5-{[N-(4-ethylphenyl)carbamoyloxy]methyl}pyrrolidin-3-yl)-2-aminoacetamide] is 0.234 µM; for `CCc1ccc(NC(=O)OC[C@@H]2C[C@@H](NC(C)=O)CN2C(=O)NCc2ccccc2Cl)cc1` [N-((5S,3R)-1-{N-[(2-chlorophenyl)methyl]carbamoyl}-5-{[N-(4-ethylphenyl)carbamoyloxy]methyl}pyrrolidin-3-yl)acetamide] it is 1.86 µM; for `CCc1ccc(NC(=O)NCCN(C)C(=O)NCc2ccccc2Cl)cc1` [N-[2-({[(2-chlorophenyl)methyl]amino}-N-methylcarbonylamino)ethyl][(4-ethylphenyl)amino]carboxamide] it is 6.75 µM.
Turning to `CCc1ccc(CC(=O)NCC2(C(=O)NCc3ccccc3Cl)CCN(C(=O)CN)CC2)cc1` [N-[(1-(2-aminoacetyl)-4-{N-[(2-chlorophenyl)methyl]carbamoyl}(4-piperidyl))methyl]-2-(4-ethylphenyl)acetamide], the IC50 came out at 14.9 µM.
On to `CCc1ccc(NC(=O)N(CCN)CC2(C(=O)NCc3ccccc3Cl)CCN(C(=O)CN)CC2)cc1` [N-[(1-(2-aminoacetyl)-4-{N-[(2-chlorophenyl)methyl]carbamoyl}(4-piperidyl))methyl]-N-(2-aminoethyl)[(4-ethylphenyl)amino]carboxamide], for which the IC50 turned out to be 16.4 µM.
The figure for `CCc1ccc(NC(=O)N(CCCOC)CC2(C(=O)NCc3ccccc3Cl)CCN(C(=O)CN)CC2)cc1` [N-[(1-(2-aminoacetyl)-4-{N-[(2-chlorophenyl)methyl]carbamoyl}(4-piperidyl))methyl][(4-ethylphenyl)amino]-N-(3-methoxypropyl)carboxamide] is 12.4 µM; for `CCc1ccc(NC(=O)OCC2(C(=O)NCc3ccccc3Cl)CCN(C(=O)[C@@H](CO)NC(=O)OC(C)(C)C)CC2)cc1` [N-[(1R)-2-(4-{N-[(2-chlorophenyl)methyl]carbamoyl}-4-{[N-(4-ethylphenyl)carbamoyloxy]methyl}piperidyl)-1-(hydroxymethyl)-2-oxoethyl](tert-butoxy)carboxamide] it is 3.5 µM; for `CCc1ccc(NC(=O)OCC2(C(=O)NCc3ccccc3Cl)CCN(C(=O)[C@@H](C)NC(=O)OC(C)(C)C)CC2)cc1` [N-[(1R)-2-(4-{N-[(2-chlorophenyl)methyl]carbamoyl}-4-{[N-(4-ethylphenyl)carbamoyloxy]methyl}piperidyl)-1-methyl-2-oxoethyl](tert-butoxy)carboxamide] it is 12 µM.
The figure for `CCc1ccc(NC(=O)OCC2(C(=O)NCc3ccccc3Cl)CCCN(C(=O)[C@H](CO)NC(=O)OC(C)(C)C)C2)cc1` (stereo partly drawn) [N-[(1S)-2-(3-{N-[(2-chlorophenyl)methyl]carbamoyl}-3-{[N-(4-ethylphenyl)carbamoyloxy]methyl}piperidyl)-1-(hydroxymethyl)-2-oxoethyl](tert-butoxy)carboxamide] is 9.09 µM.
The figure for `CCc1ccc(NC(=O)OCC2(C(=O)NCc3ccccc3Cl)CCN(C(=O)[C@H](CO)NC(=O)OC(C)(C)C)CC2)cc1` [N-[(1S)-2-(4-{N-[(2-chlorophenyl)methyl]carbamoyl}-4-{[N-(4-ethylphenyl)carbamoyloxy]methyl}piperidyl)-1-(hydroxymethyl)-2-oxoethyl](tert-butoxy)carboxamide] is 0.416 µM; for `CCc1ccc(NC(=O)OCC2(C(=O)NCc3ccccc3Cl)CCN(C(=O)[C@H](C)NC(=O)OC(C)(C)C)CC2)cc1` [N-[(1S)-2-(4-{N-[(2-chlorophenyl)methyl]carbamoyl}-4-{[N-(4-ethylphenyl)carbamoyloxy]methyl}piperidyl)-1-methyl-2-oxoethyl](tert-butoxy)carboxamide] it is 1.51 µM.
In the case of `CCc1ccc(NC(=O)OCC2(C(=O)NCc3ccccc3Cl)CCN(C(=O)C3CCCCC3)CC2)cc1` [N-[(2-chlorophenyl)methyl](1-(cyclohexylcarbonyl)-4-{[N-(4-ethylphenyl)carbamoyloxy]methyl}(4-piperidyl))carboxamide], the 50% inhibitory concentration (IC50) was determined as 2.77 µM.
Take `CCc1ccc(NC(=O)OCC2(C(=O)NCc3ccccc3Cl)CCN(C(=O)C3CC3)CC2)cc1` [N-[(2-chlorophenyl)methyl](1-(cyclopropylcarbonyl)-4-{[N-(4-ethylphenyl)carbamoyloxy]methyl}(4-piperidyl))carboxamide]: the IC50 was determined as 0.641 µM.
The figure for `CCc1ccc(NC(=O)OCC2(C(=O)NCc3ccccc3Cl)CCN(CC)CC2)cc1` [N-[(2-chlorophenyl)methyl](1-ethyl-4-{[N-(4-ethylphenyl)carbamoyloxy]methyl}(4-piperidyl))carboxamide] is 6.28 µM; for `CCc1ccc(NC(=O)OCC2(C(=O)NCc3ccccc3Cl)CC(O)C(O)C2)cc1` (centres unmarked) [N-[(2-chlorophenyl)methyl](1-{[N-(4-ethylphenyl)carbamoyloxy]methyl}-3,4-dihydroxycyclopentyl)carboxamide] it is 5.51 µM.
Take `CCc1ccc(NC(=O)OCC2(C(=O)NCc3ccccc3Cl)CC=CC2)cc1` [N-[(2-chlorophenyl)methyl](1-{[N-(4-ethylphenyl)carbamoyloxy]methyl}cyclopent-3-enyl)carboxamide]: the IC50 was found to be 1.36 µM.
The figure for `CCc1ccc(NC(=O)OCC2(C(=O)NCc3ccccc3Cl)CCCN(C(=O)CO)C2)cc1` (centres unmarked) [N-[(2-chlorophenyl)methyl](3-{[N-(4-ethylphenyl)carbamoyloxy]methyl}-1-(2-hydroxyacetyl)(3-piperidyl))carboxamide] is 0.399 µM.
The figure for `N#Cc1ccccc1NC(=O)OCC1(C(=O)NCc2ccccc2Cl)CCOCC1` [N-[(2-chlorophenyl)methyl](4-{[N-(2-cyanophenyl)carbamoyloxy]methyl}(2H-3,4,5,6-tetrahydropyran-4-yl))carboxamide] is 17 µM.
Regarding `Cc1ccc(NC(=O)OCC2(C(=O)NCc3ccccc3Cl)CCOCC2)cc1F` [N-[(2-chlorophenyl)methyl](4-{[N-(3-fluoro-4-methylphenyl)carbamoyloxy]methyl}(2H-3,4,5,6-tetrahydropyran-4-yl))carboxamide], the IC50 is 2.21 µM.
The figure for `COc1cccc(NC(=O)OCC2(C(=O)NCc3ccccc3Cl)CCOCC2)c1` [N-[(2-chlorophenyl)methyl](4-{[N-(3-methoxyphenyl)carbamoyloxy]methyl}(2H-3,4,5,6-tetrahydropyran-4-yl))carboxamide] is 19 µM; for `CCc1ccc(N(C)C(=O)OCC2(C(=O)NCc3ccccc3Cl)CCOCC2)cc1` [N-[(2-chlorophenyl)methyl](4-{[N-(4-ethylphenyl)-N-methylcarbamoyloxy]methyl}(2H-3,4,5,6-tetrahydropyran-4-yl))carboxamide] it is 7.63 µM; for `CCc1ccc(NC(=O)OCC2(C(=O)NCc3ccccc3Cl)CCOCC2)cc1` [N-[(2-chlorophenyl)methyl](4-{[N-(4-ethylphenyl)carbamoyloxy]methyl}(2H-3,4,5,6-tetrahydropyran-4-yl))carboxamide] it is 0.197 µM.
With `CCc1ccc(NC(=O)OCC2(C(=O)NCc3ccccc3Cl)CCNCC2)cc1` [N-[(2-chlorophenyl)methyl](4-{[N-(4-ethylphenyl)carbamoyloxy]methyl}(4-piperidyl))carboxamide], the IC50 stood at 1.66 µM.
In the case of `CCc1ccc(NC(=O)OCC2(C(=O)NCc3ccccc3Cl)CCN(C(=O)CO)CC2)cc1` [N-[(2-chlorophenyl)methyl](4-{[N-(4-ethylphenyl)carbamoyloxy]methyl}-1-(2-hydroxyacetyl)(4-piperidyl))carboxamide], the IC50 is 0.173 µM.
With `CCc1ccc(NC(=O)OCC2(C(=O)NCc3ccccc3Cl)CCN(CCO)CC2)cc1` [N-[(2-chlorophenyl)methyl](4-{[N-(4-ethylphenyl)carbamoyloxy]methyl}-1-(2-hydroxyethyl)(4-piperidyl))carboxamide], the IC50 stood at 4.04 µM.
`CCc1ccc(NC(=O)OCC2(C(=O)NCc3ccccc3Cl)CCN(C(=O)COC)CC2)cc1` [N-[(2-chlorophenyl)methyl](4-{[N-(4-ethylphenyl)carbamoyloxy]methyl}-1-(2-methoxyacetyl)(4-piperidyl))carboxamide]: the IC50 stood at 0.486 µM.
With `CCc1ccc(NC(=O)OCC2(C(=O)NCc3ccccc3Cl)CCN(C(=O)c3ccccn3)CC2)cc1` [N-[(2-chlorophenyl)methyl](4-{[N-(4-ethylphenyl)carbamoyloxy]methyl}-1-(2-pyridylcarbonyl)(4-piperidyl))carboxamide], the IC50 came to 0.757 µM.
